Tests used:
Assay in all cases: relative viability (nuclei count vs DMSO), 5 days (fraction); higher = more cells survive
Carboplatin + Phenformin = compound: C1CC(C1)(C(=O)O)C(=O)O.[NH2-].[NH2-].[Pt+2] [Carboplatin] + N=C(N)NC(=N)NCCc1ccccc1 [Phenformin] (partner 250 µM)
Summary of the method: (§1)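 Relative viability divides the nuclei count in treated wells by that in vehicle wells. Lung cancer cell lines were seeded in 1536-well plates, dosed by pin tool the next day, and fixed and stained after 5 days in one step with final 0.05% Triton X-100, 1% formaldehyde and 1 ug/ml Hoechst. Dosing was a single drug or a fixed anchor-drug dose plus five library-drug doses (not always all listed) in √10 steps, and values are medians of duplicate plates imaged at 4×.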

GSK126 + Luminespib = compound: CC[C@H](C)N1C=C(C2=C(C=C(C=C21)C3=CN=C(C=C3)N4CCNCC4)C(=O)NCC5=C(C=C(NC5=O)C)C)C [GSK126] + CCNC(=O)c1noc(-c2cc(C(C)C)c(O)cc2O)c1-c1ccc(CN2CCOCC2)cc1 [Luminespib] (partner 0.01 µM)
Summary of the method: as §1

GSK126 + Crizotinib = compound: CC[C@H](C)N1C=C(C2=C(C=C(C=C21)C3=CN=C(C=C3)N4CCNCC4)C(=O)NCC5=C(C=C(NC5=O)C)C)C [GSK126] + C[C@@H](Oc1cc(-c2cnn(C3CCNCC3)c2)cnc1N)c1c(Cl)ccc(F)c1Cl [Crizotinib] (partner 1 µM)
Summary of the method: as §1

MLN4924 + Lapatinib = compound: NS(=O)(=O)OC[C@@H]1C[C@@H](n2ccc3c(N[C@H]4CCc5ccccc54)ncnc32)C[C@@H]1O [MLN4924] + CS(=O)(=O)CCNCc1ccc(-c2ccc3ncnc(Nc4ccc(OCc5cccc(F)c5)c(Cl)c4)c3c2)o1 [Lapatinib] (partner 2 µM)
Summary of the method: as §1

Cell Line	relative viability (Carboplatin + Phenformin; first compound 0.08 µM)	relative viability (Carboplatin + Phenformin; first compound 0.253 µM)	relative viability (Carboplatin + Phenformin; first compound 0.8 µM)	relative viability (Carboplatin + Phenformin; first compound 2.53 µM)	relative viability (Carboplatin + Phenformin; first compound 8 µM)	relative viability (GSK126 + Luminespib; first compound 0.08 µM)	relative viability (GSK126 + Luminespib; first compound 0.253 µM)	relative viability (GSK126 + Luminespib; first compound 0.8 µM)	relative viability (GSK126 + Luminespib; first compound 2.53 µM)	relative viability (GSK126 + Luminespib; first compound 8 µM)	relative viability (GSK126 + Crizotinib; first compound 0.08 µM)	relative viability (GSK126 + Crizotinib; first compound 0.253 µM)	relative viability (GSK126 + Crizotinib; first compound 0.8 µM)	relative viability (GSK126 + Crizotinib; first compound 2.53 µM)	relative viability (GSK126 + Crizotinib; first compound 8 µM)	relative viability (MLN4924 + Lapatinib; first compound 0.04 µM)	relative viability (MLN4924 + Lapatinib; first compound 0.1265 µM)	relative viability (MLN4924 + Lapatinib; first compound 0.4 µM)	relative viability (MLN4924 + Lapatinib; first compound 1.265 µM)	relative viability (MLN4924 + Lapatinib; first compound 4 µM)
LK-2	0.683	0.47	0.343	0.398	0.563	0.217	0.171	0.171	0.204	0.188	0.282	0.224	0.243	0.252	0.206	0.521	0.656	0.638	0.272	0.257
LOU-NH91	0.871	0.646	0.714	0.708	0.675	0.303	0.337	0.325	0.364	0.357	0.759	0.71	0.737	0.773	0.727	0.814	0.926	0.904	0.533	0.414
LU99A	0.958	0.854	0.738	0.809	0.647	0.246	0.328	0.208	0.253	0.199	0.649	0.545	0.537	0.543	0.525	0.779	0.339	0.294	0.145	0.151
NCI-H441	0.769	0.963	1	0.876	0.839	0.361	0.283	0.28	0.35	0.349	0.936	0.732	0.642	0.441	0.86	–	–	–	–	–
NCI-H522	0.516	0.679	0.648	0.686	0.64	1.2	1.2	1.13	1.19	1.13	–	–	–	–	–	–	–	–	–	–
NCI-H1299	–	–	–	–	–	–	–	–	–	–	0.952	0.959	0.779	0.941	0.873	0.954	0.838	0.329	0.282	0.253
NCI-H1395	0.476	0.446	0.497	0.379	0.402	0.64	0.62	0.606	0.689	0.545	–	–	–	–	–	0.793	0.986	0.5	0.39	0.351
NCI-H1623	0.586	0.609	0.586	0.534	0.513	0.617	0.425	0.502	0.512	0.42	–	–	–	–	–	–	–	–	–	–
NCI-H1703	–	–	–	–	–	–	–	–	–	–	0.806	0.313	0.42	0.592	0.583	0.416	0.205	0.218	0.189	0.164
NCI-H1793	0.444	0.496	0.289	0.35	0.405	0.152	0.177	0.164	0.258	0.152	–	–	–	–	–	0.662	0.645	0.395	0.136	0.167
NCI-H2342	0.759	0.709	0.616	0.638	0.615	0.731	0.875	0.799	0.857	0.878	–	–	–	–	–	–	–	–	–	–
SW 900	0.713	0.561	0.608	0.431	0.414	0.206	0.188	0.165	0.173	0.213	–	–	–	–	–	–	–	–	–	–
